In US7501541B2, “Malonamides as orexin antagonists” (Hoffmann-La Roche Inc., priority 2007, dated 2009):
No end group written: not given here.

Assays:
[1] = target: T1, human orexin-2 (hOX2) receptors (Homo sapiens, UniProt O43614); test: Intracellular Ca2+ mobilization assay (FLIPR), CHO(dHFr-) cells expressing hOX2; format: cell-based; conditions: antagonism of orexin-A at EC80; Kb=IC50/(1+[A]/EC50); CHO(dHFr-)-OX2R cells
T1 construct: expressed in transfected cells
T1 sequence (O43614 1-444): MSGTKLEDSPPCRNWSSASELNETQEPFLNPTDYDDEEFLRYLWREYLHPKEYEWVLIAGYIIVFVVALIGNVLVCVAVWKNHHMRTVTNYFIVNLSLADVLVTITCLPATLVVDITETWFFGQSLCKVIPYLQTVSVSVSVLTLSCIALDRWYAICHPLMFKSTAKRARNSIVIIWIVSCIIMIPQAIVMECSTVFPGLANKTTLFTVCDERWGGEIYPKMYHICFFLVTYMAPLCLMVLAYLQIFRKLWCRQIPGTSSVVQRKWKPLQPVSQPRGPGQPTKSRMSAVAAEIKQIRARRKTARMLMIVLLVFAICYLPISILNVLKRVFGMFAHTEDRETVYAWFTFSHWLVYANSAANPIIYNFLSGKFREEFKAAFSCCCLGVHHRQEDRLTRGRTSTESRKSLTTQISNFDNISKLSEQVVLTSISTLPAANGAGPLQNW
Description: (§1) Intracellular Ca^2+ Mobilization Assay
(§2) The Chinese Hamster Ovary (dHFr-) mutant cell line stably expressing human orexin-1 (hOX1) or human orexin-2 (hOX2) receptors were maintained in Dulbecco's Modified Eagle Medium (1X) with GlutaMax™ 1, 4500 mg/L D-Glucose and Sodium Pyruvate (Catalog No. 31966-021, Invitrogen, Carlsbad, Calif.), 5% dialyzed fetal calf serum (Catalog No. 26400-044), 100 μg/ml penicillin and 100 μg/ml streptomycin. The cells were seeded at 5×10^4 cells/well in the poly-D-lysine treated, 96-well, black/clear-bottomed plates (Catalog No. BD356640, BD Biosciences, Palo Alto, Calif.). 24 h later, the cells were loaded for 1 h at 37° C. with 4 μM Flou-4 acetoxymethyl ester (Catalog No. F-14202, Molecular Probes, Eugene, Oreg.) in FLIPR buffer (1×HBSS, 20 mM HEPES, 2.5 mM Probenecid). Hanks' Balanced Salt Solution (HBSS) (10×) (catalog No. 14065-049) and HEPES (1M) (catalog No. 15630-056) were purchased from Invitrogen, Carlsbad, Calif. Probenecid (250 mM) (catalog No. P8761) was from Sigma, Buchs, Switzerland. The cells were washed five times with FLIPR buffer to remove excess dye and intracellular calcium mobilization, [Ca^2+]i were measured using a Fluorometric Imaging Plate Reader (FLIPR-96, Molecular Devices, Menlo Park, Calif.) as described previously (Malherbe et al., Mol. Pharmacol., 64, 823-832, 2003). Orexin A (catalog No. 1455, Toris Cookson Ltd, Bristol, UK) was used as agonist. Orexin A ([…] stock solution in DMSO) was diluted in FLIPR buffer +0.1% BSA. The EC50 and EC80 values of orexin-A were measured daily from standard agonist concentration-response curves in CHO(dHFr-)-OX1R and -OX2R cell lines. All compounds were dissolved in 100% DMSO. Inhibition curves were determined by addition of 11 concentrations (0.0001-10 μM) of inhibitory compounds and using EC80 value of orexin-A as agonist (a concentration which gave 80% of max agonist response, determined daily). The antagonists were applied 25 min (incubation at 37° C.) before the application of the agonist. Responses were measured as peak increase in fluorescence minus basal, normalized to the maximal stimulatory effect induced by EC80 value of orexin-A or orexin-B. Inhibition curves were fitted according to the Hill equation: y=100/(1+(x/IC50)^nH), where nH=slope factor using Excel-fit 4 software (Microsoft). Kb values were calculated according to the following equation Kb=IC50/(1+[A]/EC50) where A is the concentration of agonist added which is very close to agonist EC80 value, and IC50 and EC50 values were derived from the antagonist inhibition and orexin-A or B agonist curves, respectively.

[2] = target: T2, human orexin-1 (hOX1) receptors (Homo sapiens, UniProt O43613); test: Intracellular Ca2+ mobilization assay (FLIPR), CHO(dHFr-) cells expressing hOX1; format: cell-based; conditions: antagonism of orexin-A at EC80; Kb=IC50/(1+[A]/EC50); CHO(dHFr-)-OX1R cells
T2 construct: expressed in transfected cells
T2 sequence (O43613 1-425): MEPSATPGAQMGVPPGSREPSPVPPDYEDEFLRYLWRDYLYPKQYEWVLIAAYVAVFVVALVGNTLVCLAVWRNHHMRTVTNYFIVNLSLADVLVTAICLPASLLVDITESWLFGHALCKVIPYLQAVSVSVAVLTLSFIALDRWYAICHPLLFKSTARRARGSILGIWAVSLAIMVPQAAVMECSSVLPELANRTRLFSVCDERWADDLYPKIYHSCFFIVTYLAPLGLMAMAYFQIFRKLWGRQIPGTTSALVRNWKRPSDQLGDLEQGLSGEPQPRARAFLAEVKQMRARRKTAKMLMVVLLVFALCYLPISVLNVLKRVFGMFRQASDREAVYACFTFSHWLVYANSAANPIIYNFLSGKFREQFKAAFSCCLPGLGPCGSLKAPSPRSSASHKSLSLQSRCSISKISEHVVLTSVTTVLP
Description: as §1, §2

[3] = test system: REM sleep; conditions: rat, icv administration (Piper et al., 2000); cited from earlier work

| Compound | Kb [1] | Kb [2] | reduces total REM sleep [3] |
| --- | --- | --- | --- |
| CNC(=O)C(C(=O)N(CCc1ccc(C(F)(F)F)cc1)c1ccc(OC)c(OC)c1)c1ccccc1 (stereo not drawn) [Example 1, N-(3,4-Dimethoxy-phenyl)-N′-methyl-2-phenyl-N-[2-(4-trifluoromethyl-phenyl)-ethyl]-malonamide] | 0.0255 µM | 0.16 µM | – |
| COc1ccc(N(CCc2ccc(C(F)(F)F)cc2)C(=O)C(C(N)=O)c2ccccc2)cc1OC (stereo not drawn) [Example 2, N-(3,4-Dimethoxy-phenyl)-2-phenyl-N-[2-(4-trifluoromethyl-phenyl)-ethyl]-malonamide] | 0.0172 µM | 0.127 µM | – |
| CCCCNC(=O)C(C(=O)N(CCc1ccc(C(F)(F)F)cc1)c1ccc(OC)c(OC)c1)c1ccccc1 (stereo not drawn) [Example 3, N-Butyl-N′-(3,4-dimethoxy-phenyl)-2-phenyl-N′-[2-(4-trifluoromethyl-phenyl)-ethyl]-malonamide] | 0.0419 µM | – | – |
| COCCNC(=O)C(C(=O)N(CCc1ccc(C(F)(F)F)cc1)c1ccc(OC)c(OC)c1)c1ccccc1 (stereo not drawn) [Example 5, N-(3,4-Dimethoxy-phenyl)-N′-[2-methoxy-ethyl)-2-phenyl-N-[2-(4-trifluoromethyl-phenyl)-ethyl]-malonamide] | 0.0217 µM | 0.229 µM | – |
| COc1ccc(N(CCc2ccc(C(F)(F)F)cc2)C(=O)C(C(=O)NCc2ccc(C)cc2)c2ccccc2)cc1OC (stereo not drawn) [Example 13, N-(3,4-Dimethoxy-phenyl)-N′-(4-methyl-benzyl)-2-phenyl-N-[2-(4-trifluoromethyl-phenyl)-ethyl]-malonamide] | 0.0968 µM | 0.218 µM | – |
| COc1ccc(N(CCc2ccc(C(F)(F)F)cc2)C(=O)C(C(=O)N(C)CCc2ccccc2)c2ccccc2)cc1OC (stereo not drawn) [Example 14, N-(3,4-Dimethoxy-phenyl)-N′-methyl-N′-phenethyl-2-phenyl-N-[2-(4-trifluoromethyl-phenyl)-ethyl]-malonamide] | 0.0141 µM | 0.234 µM | – |
| COc1ccc(N(CCc2ccc(C(F)(F)F)cc2)C(=O)C(C(=O)N(C)Cc2ccccc2)c2ccccc2)cc1OC (stereo not drawn) [Example 15, N-Benzyl-N′-(3,4dimethoxy-phenyl)-N-methyl-2-phenyl-N′-[2-(4-trifluoromethyl-phenyl)-ethyl]-malonamide] | 0.0428 µM | 0.166 µM | – |
| COc1ccc(N(CCc2ccc(C(F)(F)F)cc2)C(=O)C(C(=O)Nc2ccc(F)cc2)c2ccccc2)cc1OC (stereo not drawn) [Example 16, N-(3,4-Dimethoxy-phenyl)-N′-(4-fluoro-phenyl)-2-phenyl-N-[2-(4-trifluoromethyl-phenyl)-ethyl]-malonamide] | 0.0817 µM | 0.252 µM | – |
| CCNC(=O)C(C(=O)N(CCc1ccc(C(F)(F)F)cc1)c1ccc(OC)c(OC)c1)c1ccccc1 (stereo not drawn) [Example 17, N-(3,4-Dimethoxy-phenyl)-N′-ethyl-2-phenyl-N-[2-(4-trifluoromethyl-phenyl)-ethyl]-malonamide] | 0.0299 µM | 0.191 µM | – |
| COc1ccc(N(CCc2ccc(C(F)(F)F)cc2)C(=O)C(C(=O)NC2CC2)c2ccccc2)cc1OC (stereo not drawn) [Example 18, N-Cyclopropyl-N′-(3,4-dimethoxy-phenyl)-2-phenyl-N′-[2-(4-trifluoromethyl-phenyl)-ethyl]-malonamide] | 0.0197 µM | 0.199 µM | – |
| CCCNC(=O)C(C(=O)N(CCc1ccc(C(F)(F)F)cc1)c1ccc(OC)c(OC)c1)c1ccccc1 (stereo not drawn) [Example 19, N-(3,4-Dimethoxy-phenyl)-2-phenyl-N′-propyl-N-[2-(4-trifluoromethyl-phenyl)-ethyl]-malonamide] | 0.0523 µM | 0.245 µM | – |
| COc1ccc(N(CCc2ccc(C(F)(F)F)cc2)C(=O)C(C(=O)NCC2CC2)c2ccccc2)cc1OC (stereo not drawn) [Example 20, N-Cyclopropylmethyl-N′-(3,4-dimethoxy-phenyl)-2-phenyl-N′-[2-(4-trifluoromethyl-phenyl)-ethyl]-malonamide] | 0.0468 µM | 0.292 µM | – |
| OX-A: orexin-A/hypocretin1, hypothalamic neuropeptide of 33 amino acids, agonist of OX1R and OX2R (QPLPDCCRQKTCSCRLYELLHGAGNHAAGILTL; ends and bridges not checked; cysteine pairing not given here; UniProt O43612 34-66, looked up) | – | – | 84% |

Second part, led by results:

| Kb [1] | Kb [2] | Compound | reduces total REM sleep [3] |
| --- | --- | --- | --- |
| 0.0278 µM | 0.173 µM | COc1ccc(N(CCc2ccc(C(F)(F)F)cc2)C(=O)C(C(=O)NCC(F)F)c2ccccc2)cc1OC (stereo not drawn) [Example 21, N-(2,2-Difluoro-ethyl)-N′-(3,4-diemthoxy-phenyl)-2-phenyl-N′-[2-(4-trifluoromethyl-phenyl)-ethyl]-malonamide] | – |
| 0.0838 µM | 0.439 µM | COc1ccc(N(CCc2ccc(C(F)(F)F)cc2)C(=O)C(C(=O)Nc2cccnc2)c2ccccc2)cc1OC (stereo not drawn) [Example 22, N-(3,4-Dimethoxy-phenyl)-2-phenyl-N′-pyridin-3-yl-N-[2-(4-trifluoromethyl-phenyl)-ethyl]-malonamide] | – |
| 0.023 µM | 0.238 µM | COc1ccc(N(CCc2ccc(C(F)(F)F)cc2)C(=O)C(C(=O)NC2CCOCC2)c2ccccc2)cc1OC (stereo not drawn) [Example 23, N-(3,4-Dimethoxy-phenyl)-2-phenyl-N′-(tetrahydro-pyran-4-yl)-N-[2-(4-trifluoromethyl-phenyl)-ethyl]-malonamide] | – |
| 0.245 µM | 0.245 µM | COc1ccc(N(CCc2ccc(C(F)(F)F)cc2)C(=O)C(C(=O)NCc2cccnc2)c2ccccc2)cc1OC (stereo not drawn) [Example 24, N-(3,4-Dimethoxy-phenyl)-2-phenyl-N′-pyridin-3-ylmethyl-N-[2-(4-trifluoromethyl-phenyl)-ethyl]-malonamide] | – |
| 0.055 µM | 0.295 µM | COc1cc(N(CCc2ccc(C(F)(F)F)cc2)C(=O)C(C(=O)N(C)C)c2ccccc2)ccc1Cl (stereo not drawn) [Example 56, N-(4-Chloro-3-methoxy-phenyl)-N′,N′-dimethyl-2-phenyl-N-[2-(4-trifluoromethyl-phenyl)-ethyl]-malonamide] | – |
| 0.0572 µM | 0.723 µM | COc1ccc(N(CCc2ccc(C(F)(F)F)cc2)C(=O)C(C(=O)N(C)C)c2ccccc2)cc1Cl (stereo not drawn) [Example 58, N-(3-Chloro-4-methoxy-phenyl)-N′,N′-dimethyl-2-phenyl-N-[2-(4-trifluoromethyl-phenyl)-ethyl]-malonamide] | – |
